For one series, the system named is CYP1A1 mRNA. The series can be described thus: Induction of CYP1A1 mRNA in HepG2 cells (RT-PCR). The following applies: 24 h incubation, 10 uM, normalized to 18S rRNA. It is filed as cell-based, human. The method, then: HepG2 cells (American Type Culture Collection (ATCC), Manassas, Va.) were cultured using Eagle's minimal essential medium (ATCC), supplemented with 10% fetal calf serum (Invitrogen Life Technologies). The cells were cultured continuously until used in experiments (similar to Examples 2 and 3). Celts were plated at a seeding density of 3.8×10^5 cells per well on 6-well plates (Corning Costar, N.Y., U.S.A.). Cells were allowed to attach for 24 h in a 37° C. humidified incubator with a 5% CO2 atmosphere. Media was replaced with that containing test agents or vehicle (0.1% dimethylsuiphoxide) and cells incubated for a further 24 h. Following the 24 h incubation with test agents, media was removed and RNA prepared using the Purelink RNA mini kit (ThermoFischer, Carlsbad, Calif.). Nucleic acid concentration was determined using a Nanodrop™ spectrophotometer (ThermoScientific) by measuring the OD at 260 nm and RNA purity was evaluated using the OD 260/280 nm ratio, 1 μg RNA was reverse transcribed using SuperScript®VILO™ (ThermoFischer) with cDNA synthesis performed using the following parameters: 10min at 25° C., 2 h at 42° C., 5min at 85° C. (deactivation) followed by a completion temperature de C. […] Results were analyzed by calculating the fold change of CYP1A1 mRNA levels normalized to 18S rRNA (ΔΔCt) in compound treated cells or tissues compared to vehicle levels.

The subject of the next series is CYP1A1. Description: Induction of CYP1A1 enzyme in human cultured sebocytes, EROD assay. The format is cell-based. The following applies: cultured sebocytes, probe 7-ethoxyresorufin (8 μM). The method, then: (§1) Cells are seeded at between 1×10^4 and 2.5×10^4 cells/well in a 96-well microtitre plate. […] 100 μl of medium is then transferred to a fresh black 96-well plate and 130 μl methanol added. The formation of resorufin is quantified by fluorometry with a fluorescence plate reader. Fluorescence is determined at λex 570 nm and λem 590 nm. The amount of resorufin is calculated from a standard curve generated using 0 to 1 μM resorufin in water at ½ log dilutions. The remaining (i.e. all cells present at the beginning of analysis, since only supernatant is taken to assay EROD) live cells are subsequently utilized for the MU cytotoxicity assay. MU is made up in serum-free medium at 5 mg/mi. then added to the cells giving a final concentration of 10% (0.5 mg/ml MIT final) then incubated for 2 h. The medium is carefully removed, then MIT formazan is solubilized by adding 200 μl of DMSO and subsequently mixed on a plate shaker. The absorbance is measured spectrophotometrically at 550 nm and background absorbance at […] is subtracted. A standard curve generated using MTT formazan (dissolved in DMSO) from O—200 μM (0, 2, 5, 10, 20, 50, 100, 200 μM) is used to calculate the final experimental values which are then expressed as (μmol resorufin/mol MTT formazan) or as fold-induction compared to solvent.

In the next series the test system is CYP1A1 enzyme. The description is as above. The following applies: 10 uM, 24 h. It is filed as cell-based. Here is the method:
as §1

A further series concerns human sebocyte cells. The series can be described thus: MTT cytotoxicity assay in human cultured sebocytes after EROD. It is filed as cell-based. The method, then: The essential methodology for culture and handling of human cultured sebocytes has been described in earlier examples for HEPG2 and NHK cells. Cells are seeded at between 1×10^4 and 2.5×10^4 cells/well in a 96-well microtitre plate. […] The formation of resorufin is quantified by fluorometry with a fluorescence plate reader. Fluorescence is determined at λex 570 nm and λem 590 nm. The amount of resorufin is calculated from a standard curve generated using 0 to 1 μM resorufin in water at ½ log dilutions. The remaining (i.e. all cells present at the beginning of analysis, since only supernatant is taken to assay EROD) live cells are subsequently utilized for the MU cytotoxicity assay. MU is made up in serum-free medium at 5 mg/mi. then added to the cells giving a final concentration of 10% (0.5 mg/ml MIT final) then incubated for 2 h. The medium is carefully removed, then MIT formazan is solubilized by adding 200 μl of DMSO and subsequently mixed on a plate shaker. The absorbance is measured spectrophotometrically at 550 nm and background absorbance at […] is subtracted. A standard curve generated using MTT formazan (dissolved in DMSO) from O—200 μM (0, 2, 5, 10, 20, 50, 100, 200 μM) is used to calculate the final experimental values which are then expressed as (μmol resorufin/mol MTT formazan) or as fold-induction compared to solvent.

Here are results for one compound from US20180118707A1, “BETA-NAPHTHOISOFLAVONES, COMPOSITIONS CONTAINING, AND USES OF, SAME” (Thesan Pharmaceuticals, Inc., priority 2015, published 2018).

SMILES strings stand for the structures.

The EC50 is the concentration that produces a half-maximal response. A high value points to a need for much substance. In the case of `O=c1cc(-c2ccccc2)oc2ccc3ccccc3c12` [D, 3-Phenyl-1H-benzo[f]chromen-1-one, reference compound], the “CYP1A1 mRNA fold change from vehicle” value with CYP1A1 mRNA turned out to be 596 fold. Moreover, a half-maximal response in the series on CYP1A1 (EC50 at 24 h) required 1000 nM. The “% change vs. TCDD EROD (Sebs) at 10 uM” value with CYP1A1 enzyme turned out to be 17%. In the series with human sebocyte cells, this compound registered a Toxicity threshold of 30 µM.
